Results from ChEMBL document CHEMBL3352542, “Synthesis, biological evaluation and molecular modeling study of 2-(1,3,4-thiadiazolyl-thio and 4-methyl-thiazolyl-thio)-quinazolin-4-ones as a new class of DHFR inhibitors” (Bioorg Med Chem Lett, 2014).

What was measured:
Dihydrofolate reductase = target: T1, Dihydrofolate reductase (Bos taurus, UniProt P00376); test: Inhibition of bovine liver DHFR
T1 sequence (P00376 whole entry): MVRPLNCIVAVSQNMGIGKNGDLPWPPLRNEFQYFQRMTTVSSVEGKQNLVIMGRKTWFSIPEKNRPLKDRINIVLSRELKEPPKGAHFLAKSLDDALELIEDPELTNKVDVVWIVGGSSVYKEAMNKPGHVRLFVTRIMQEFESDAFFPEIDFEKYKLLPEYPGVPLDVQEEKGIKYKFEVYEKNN

Staphylococcus aureus = test: Antimicrobial activity against Staphylococcus aureus assessed as inhibition zone at 200 ug/disk after 24 hrs by disc-diffusion method; assay type: functional; settings: read-out: IZ
Bacillus subtilis = test: Antimicrobial activity against Bacillus subtilis assessed as inhibition zone at 200 ug/disk after 24 hrs by disc-diffusion method; assay type: functional; settings: read-out: IZ
Escherichia coli = test: Antimicrobial activity against Escherichia coli assessed as inhibition zone at 200 ug/disk after 24 hrs by disc-diffusion method; assay type: functional; settings: read-out: IZ
Pseudomonas aeruginosa = test: Antimicrobial activity against Pseudomonas aeruginosa assessed as inhibition zone at 200 ug/disk after 24 hrs by disc-diffusion method; assay type: functional; settings: read-out: IZ
Candida albicans = test: Antimicrobial activity against Candida albicans assessed as inhibition zone at 200 ug/disk after 24 hrs by disc-diffusion method; assay type: functional; settings: read-out: IZ
CCRF-CEM = test: Growth inhibition of human CCRF-CEM cells at 10 uM after 48 hrs; assay type: functional; settings: read-out: GI
HL-60(TB) = test: Growth inhibition of human HL-60(TB) cells at 10 uM after 48 hrs; assay type: functional; settings: HL-60, 48 h, read-out: GI
K562 = test: Growth inhibition of human K562 cells at 10 uM after 48 hrs; assay type: functional; settings: K562, 48 h, read-out: GI
[1] = Growth inhibition of human MOLT4 cells at 10 uM after 48 hrs; assay type: functional; settings: MOLT-4, 48 h, read-out: GI
[2] = Growth inhibition of human RPMI8226 cells at 10 uM after 48 hrs; assay type: functional; settings: RPMI-8226, 48 h, read-out: GI
A549 = test: Growth inhibition of human A549 cells at 10 uM after 48 hrs; assay type: functional; settings: A549, 48 h, read-out: GI
[3] = Growth inhibition of human HOP92 cells at 10 uM after 48 hrs; assay type: functional; settings: HOP-92, 48 h, read-out: GI
NCI-H226 = test: Growth inhibition of human NCI-H226 cells at 10 uM after 48 hrs; assay type: functional; settings: NCI-H226, 48 h, read-out: GI
NCI-H522 = test: Growth inhibition of human NCI-H522 cells at 10 uM after 48 hrs; assay type: functional; settings: NCI-H522, 48 h, read-out: GI
[4] = Growth inhibition of human COLO205 cells at 10 uM after 48 hrs; assay type: functional; settings: COLO 205, 48 h, read-out: GI
[5] = Growth inhibition of human HCC2998 cells at 10 uM after 48 hrs; assay type: functional; settings: HCC 2998, 48 h, read-out: GI
[6] = Growth inhibition of human HCT116 cells at 10 uM after 48 hrs; assay type: functional; settings: HCT-116, 48 h, read-out: GI
[7] = Growth inhibition of human HCT15 cells at 10 uM after 48 hrs; assay type: functional; settings: HCT-15, 48 h, read-out: GI
HT-29 = test: Growth inhibition of human HT-29 cells at 10 uM after 48 hrs; assay type: functional; settings: HT-29, 48 h, read-out: GI
SW-620 = test: Growth inhibition of human SW620 cells at 10 uM after 48 hrs; assay type: functional; settings: SW-620, 48 h, read-out: GI
[8] = Growth inhibition of human SF295 cells at 10 uM after 48 hrs; assay type: functional; settings: SF-295, 48 h, read-out: GI
[9] = Growth inhibition of human SF539 cells at 10 uM after 48 hrs; assay type: functional; settings: SF-539, 48 h, read-out: GI
SNB-75 = test: Growth inhibition of human SNB75 cells at 10 uM after 48 hrs; assay type: functional; settings: SNB-75, 48 h, read-out: GI
U-251 = test: Growth inhibition of human U251 cells at 10 uM after 48 hrs; assay type: functional; settings: U-251, 48 h, read-out: GI
[10] = Growth inhibition of human LOXIMVI cells at 10 uM after 48 hrs; assay type: functional; settings: LOX IMVI, read-out: GI
M14 = test: Growth inhibition of human M14 cells at 10 uM after 48 hrs; assay type: functional; settings: M14, 48 h, read-out: GI
SK-MEL-5 = test: Growth inhibition of human SK-MEL-5 cells at 10 uM after 48 hrs; assay type: functional; settings: SK-MEL-5, 48 h, read-out: GI
[11] = Growth inhibition of human UACC257 cells at 10 uM after 48 hrs; assay type: functional; settings: UACC-257, 48 h, read-out: GI
[12] = Growth inhibition of human UACC62 cells at 10 uM after 48 hrs; assay type: functional; settings: UACC-62, 48 h, read-out: GI
[13] = Growth inhibition of human OVCAR4 cells at 10 uM after 48 hrs; assay type: functional; settings: OVCAR-4, 48 h, read-out: GI
[14] = Growth inhibition of human OVCAR8 cells at 10 uM after 48 hrs; assay type: functional; settings: OVCAR-8, 48 h, read-out: GI
[15] = Growth inhibition of human NCI-ADR-RES cells at 10 uM after 48 hrs; assay type: functional; settings: read-out: GI
786-0 = test: Growth inhibition of human 786-0 cells at 10 uM after 48 hrs; assay type: functional; settings: 786-0, 48 h, read-out: GI
A498 = test: Growth inhibition of human A498 cells at 10 uM after 48 hrs; assay type: functional; settings: A498, 48 h, read-out: GI
ACHN = test: Growth inhibition of human ACHN cells at 10 uM after 48 hrs; assay type: functional; settings: read-out: GI
[16] = Growth inhibition of human RXF393 cells at 10 uM after 48 hrs; assay type: functional; settings: RXF 393, 48 h, read-out: GI
SN12C = test: Growth inhibition of human SN12C cells at 10 uM after 48 hrs; assay type: functional; settings: read-out: GI
[17] = Growth inhibition of human UO31 cells at 10 uM after 48 hrs; assay type: functional; settings: UO-31, 48 h, read-out: GI
[18] = Growth inhibition of human PC3 cells at 10 uM after 48 hrs; assay type: functional; settings: PC-3, 48 h, read-out: GI
MCF7 = test: Growth inhibition of human MCF7 cells at 10 uM after 48 hrs; assay type: functional; settings: MCF7, 48 h, read-out: GI
[19] = Growth inhibition of human Hs 578T cells at 10 uM after 48 hrs; assay type: functional; settings: read-out: GI
[20] = Growth inhibition of human BT549 cells at 10 uM after 48 hrs; assay type: functional; settings: BT-549, 48 h, read-out: GI
T47D = test: Growth inhibition of human T47D cells at 10 uM after 48 hrs; assay type: functional; settings: read-out: GI
MDA-MB-468 = test: Growth inhibition of human MDA-MB-468 cells at 10 uM after 48 hrs; assay type: functional; settings: MDA-MB-468, 48 h, read-out: GI

In the case of `COc1cc2nc(Sc3sc(N)nc3C)n(-c3ccc(Oc4ccccc4)cc3)c(=O)c2cc1OC`, the IC50 (Dihydrofolate reductase) is reported as 6 µM, the zone of inhibition at 200 µg/disc (Staphylococcus aureus) is reported as 8 mm and the zone of inhibition at 200 µg/disc (Bacillus subtilis) is reported as 8 mm. It also gave a zone of inhibition at 200 µg/disc (Escherichia coli) of 8 mm, a zone of inhibition at 200 µg/disc (Pseudomonas aeruginosa) of 8 mm and a zone of inhibition at 200 µg/disc (Candida albicans) of 8 mm. It also gave an inhibition of growth at 10 µM (CCRF-CEM) of 35.5%, an inhibition of growth at 10 µM (HL-60(TB)) of 21.2% and an inhibition of growth at 10 µM (K562) of 21.5%. For the same compound, the inhibition of growth at 10 µM [1] was 46.1%, the inhibition of growth at 10 µM [2] was 32.4% and the inhibition of growth at 10 µM (A549) was 16.7%. The inhibition of growth at 10 µM [3] was 20.5%, the inhibition of growth at 10 µM (NCI-H226) was 10.3% and the inhibition of growth at 10 µM (NCI-H522) was 16.3%. It also gave an inhibition of growth at 10 µM [4] of 24.1%, an inhibition of growth at 10 µM [5] of 19.6% and an inhibition of growth at 10 µM [6] of 52.7%. It also gave an inhibition of growth at 10 µM [7] of 20.1%, an inhibition of growth at 10 µM (HT-29) of 25% and an inhibition of growth at 10 µM (SW-620) of 18.8%. It also gave an inhibition of growth at 10 µM [8] of 14.6%, an inhibition of growth at 10 µM [9] of 18.7% and an inhibition of growth at 10 µM (SNB-75) of 13.3%. It also gave an inhibition of growth at 10 µM (U-251) of 12.4%, an inhibition of growth at 10 µM [10] of 21.7% and an inhibition of growth at 10 µM (M14) of 18.5%. The inhibition of growth at 10 µM (SK-MEL-5) was 23.2%, the inhibition of growth at 10 µM [11] was 10.3% and the inhibition of growth at 10 µM [12] was 18.6%. It also gave an inhibition of growth at 10 µM [13] of 49.3%, an inhibition of growth at 10 µM [14] of 15% and an inhibition of growth at 10 µM [15] of 24.8%. It also gave an inhibition of growth at 10 µM (786-0) of 20%, an inhibition of growth at 10 µM (A498) of 18% and an inhibition of growth at 10 µM (ACHN) of 18.5%. For the same compound, the inhibition of growth at 10 µM [16] was 14.1%, the inhibition of growth at 10 µM (SN12C) was 20.3% and the inhibition of growth at 10 µM [17] was 23.9%. It also gave an inhibition of growth at 10 µM [18] of 34.9%, an inhibition of growth at 10 µM (MCF7) of 25.7% and an inhibition of growth at 10 µM [19] of 11.6%. The inhibition of growth at 10 µM [20] was 28.7%, the inhibition of growth at 10 µM (T47D) was 22.7% and the inhibition of growth at 10 µM (MDA-MB-468) was 19.9%.
